Experimental data taken from article PMC11541474, “Toward New Therapeutics for Visceral Leishmaniasis: Efficacy and Mechanism of Action of Amides Inspired by Gibbilimbol B” (ACS Omega, 2024).

Key:
[1] = test system: L. (L.) infantum promastigotes; assay: in vitro activity against promastigote forms of L. (L.) infantum; type: cell-based, Leishmania (L.) infantum; conditions: Leishmania infantum; L. (L.) infantum promastigotes; read-out: Ec50 Promastigote (μm) ± SD
Procedure: (§1) Evaluation of in vitro activity against promastigote and amastigote forms of L. (L.) infantum was performed as previously reported assays.[40]−[43] The CC50 and EC50 values were calculated using sigmoidal dose–response curves using Graph Pad Prism 5.0 software. One-way ANOVA testing with Tukey’s multiple comparison tests were used for evaluation of the statistical significance (p-value) of differences between the samples, which were tested in duplicate and all assays were repeated at least twice.

[2] = in vitro mammalian toxicity against NCTC cells; type: cell-based; conditions: 50% cytotoxic concentration, read-out: Cc50 Nctc (μm) ± SD
Procedure: as §1, with “mammalian toxicity” for “activity”, “NCTC cells” for “promastigote and amastigote forms of L. (L.) infantum”, “described.[40] The selectivity index was determined using the following equation: CC50 against NCTC cells/EC50 against amastigotes.[44]” for “reported assays.[40]−[43]”

[3] = test system: L. (L.) infantum promastigotes; type: cell-based, Leishmania (L.) infantum; conditions: 9 at 141.5 μM, 10 at 110.1 μM, after 240 min
Procedure: Figure 5 Evaluation of ROS in promastigotes of L. (L.) infantum treated with compounds 9 (141.5 μM) or 10 (110.1 μM). […]
Measurements of ROS were conducted as previously reported.[48] Briefly, promastigotes were treated with compounds 9 (141.5 μM) or 10 (110.1 μM) in HBSS+Glu at 24 °C using H2DCFDA (Molecular Probes). Fluorescence was measured using a fluorimetric microplate reader (FilterMax F5Multi-Mode, Molecular Devices) with excitation and emission filters at 485 and 520 nm, respectively.[48] Untreated and treated parasites (H2O2 - 40 μM) were used as negative and positive controls, respectively.

[4] = test system: L. (L.) infantum promastigotes; assay: acidocalcisome alterations, acridine orange; type: cell-based, Leishmania (L.) infantum; conditions: 9 at 141.5 μM (20 min), 10 at 110.1 μM (significant from 60 min onward)
From the text: Acidocalcisomes are intracellular organelles that are characterized by acidity and high calcium concentrations due to the proton and calcium pumps.[33] In trypanosomatids, these organelles are rich in short-chain polyphosphates and occupy a small proportion (1 to 2%) of each cell’s volume.[34] In these parasites, the acidocalcisomes are responsible for capturing and storing calcium in large quantities, which is essential for cellular functioning.[35] In our study, we investigated possible changes resulting from treatment with compounds in acidocalcisomes, especially concerning intracellular calcium. Acridine orange was used as a fluorescent probe to evaluate changes in the acidocalcisomes of L. (L.) infantum promastigotes. Alkalinization of these organelles results in the release of the probe, altering the fluorescence.[36] […] These effects were compared with those of the positive (nigericin) and negative (untreated parasites) controls. Figure 8 Acidocalcisome alkalization in L. (L.) infantum treated with compounds 9 (141.5 μM - A) or 10 (110.1 μM - B). […] Fluorescence is represented as a percentage of the fluorescence in the positive control with nigericin at 20 min (100%). ***p = 0.003, **p = 0.0021, **p = 0.05. […] The fluorescence was measured in a spectrofluorimeter with excitation an emission at […], respectively. […]

[5] = test system: L. (L.) infantum promastigotes; assay: parasite protein spectral profiling (MALDI-TOF/MS); type: cell-based, Leishmania (L.) infantum; conditions: 9 at 141.5 μM, 10 at 110.1 μM, 24 h incubation
Procedure: Finally, the protein variations of Leishmania after treatment with compounds 9 and 10 were investigated using MALDI-TOF/MS analysis.[37],[38] […] Panel I. Promastigotes were incubated with compound 9 (141.5 μM), compound 10 (110.1 μM). Miltefosine was used as positive control whereas untreated parasites were used as a negative control. The peaks observed at m/z 6,153 and m/z 7,187 (blue) allow the identification of the Leishmania subgenus. Increases in peak intensity resulting from the incubation of promastigotes with compound 9 or 10 can be observed at m/z 3,081, 5,542, and 11,079 (red). Panel II. A schematic gel showing mass spectra in the m/z 2,000–20,000 range (B, D, F, H); raw spectra are shown in blue (A, C, E, G), whereas spectra generated after normalization, smoothing, and baseline subtraction are shown in red. (A) and (B), results from untreated promastigotes (negative control); (C) and (D); results from promastigotes incubated with compound 9; (E) and (F), results from promastigotes incubated with compound 10; and (G) and (H) results from promastigotes incubated with miltefosine (standard treatment drug and positive control). MALDI-TOF/MS was used to investigate protein changes in stationary-phase L. (L.) infantum promastigotes that were induced by treatment with compound 9 (141.5 μM), compound 10 (110.1 μM), or the standard drug miltefosine. […]

For `CCCCC(CC)CNC(=O)c1ccc(Cl)cc1` (stereo not shown) [Compound 9, N-(2-Ethylhexyl)-4-chlorobenzamide], the EC50 [1] was 41.9 ± 2.1 µM, the CC50 [2] was over 200 µM and the “ROS levels compared with negative control (H2DCFDA)” value [3] was “significantly reduced ROS levels”. The “effect on acidocalcisomes (acridine orange fluorescence)” value [4] was “alkalinization of the acidocalcisomes” and the “MALDI-TOF/MS protein spectral profile compared with untreated parasites” value [5] was “increased the intensity of the spectral peaks”.
With `CCCCC(CC)CNC(=O)c1ccc([N+](=O)[O-])cc1` (stereo not shown) [Compound 10, N-(2-Ethylhexyl)-4-nitrobenzamide] the EC50 [1] was 44.3 ± 0.4 µM, the CC50 [2] was over 200 µM and the “ROS levels compared with negative control (H2DCFDA)” value [3] was “significantly reduced ROS levels”. The “effect on acidocalcisomes (acridine orange fluorescence)” value [4] was “progressive and continuous acidification of these organelles” and the “MALDI-TOF/MS protein spectral profile compared with untreated parasites” value [5] was “increased the intensity of the spectral peaks”.
